Calls of active or inactive are those of the source. The rule behind the calls is not given here.
Columns and labels:
HaCaT [1] = assay: Induction of apoptosis in human HaCaT cells transfected with shAKT2 assessed as decrease in cleaved caspase 3 level by Western blot analysis; type: functional, cell-based
HaCaT [2] = assay: Induction of apoptosis in human HaCaT cells assessed as viable cells at 9 uM by flow cytometry analysis (reference value: 79.16%); type: functional; conditions: read-out: Activity
HaCaT [3] = assay: Induction of apoptosis in human HaCaT cells assessed as early apoptotic cells at 9 uM by flow cytometry analysis (reference value: 0.54%); type: functional
HaCaT [4] = assay: Induction of apoptosis in human HaCaT cells assessed as late apoptotic cells at 9 uM by flow cytometry analysis (reference value: 17.13%); type: functional
HaCaT [5] = assay: Induction of apoptosis in human HaCaT cells assessed as necrotic cells at 9 uM by flow cytometry analysis (reference value: 3.17%); type: functional
HaCaT [6] = assay: Induction of apoptosis in human HaCaT cells transfected with shAKT1 assessed as viable cells at 9 uM by flow cytometry analysis (reference value: 77.12%); type: functional; conditions: read-out: Activity
HaCaT [7] = assay: Induction of apoptosis in human HaCaT cells transfected with shAKT1 assessed as early apoptotic cells at 9 uM by flow cytometry analysis (reference value: 0.54%); type: functional
HaCaT [8] = assay: Induction of apoptosis in human HaCaT cells transfected with shAKT1 assessed as late apoptotic cells at 9 uM by flow cytometry analysis (reference value: 18.52%); type: functional
HaCaT [9] = assay: Induction of apoptosis in human HaCaT cells transfected with shAKT1 assessed as necrotic cells at 9 uM by flow cytometry analysis (reference value: 3.82%); type: functional
HaCaT [10] = assay: Induction of apoptosis in human HaCaT cells transfected with shAKT2 assessed as viable cells at 9 uM by flow cytometry analysis (reference value: 79.95%); type: functional; conditions: read-out: Activity
HaCaT [11] = assay: Induction of apoptosis in human HaCaT cells transfected with shAKT2 assessed as early apoptotic cells at 9 uM by flow cytometry analysis (reference value: 0.38%); type: functional
HaCaT [12] = assay: Induction of apoptosis in human HaCaT cells transfected with shAKT2 assessed as late apoptotic cells at 9 uM by flow cytometry analysis (reference value: 16.77%); type: functional
HaCaT [13] = assay: Induction of apoptosis in human HaCaT cells transfected with shAKT2 assessed as late apoptotic cells at 9 uM by flow cytometry analysis (reference value: 2.90%); type: functional
HaCaT [14] = assay: Induction of apoptosis in human HaCaT cells transfected with shAKT3 assessed as viable cells at 9 uM by flow cytometry analysis (reference value: 78.17%); type: functional; conditions: read-out: Activity
HaCaT [15] = assay: Induction of apoptosis in human HaCaT cells transfected with shAKT3 assessed as early apoptotic cells at 9 uM by flow cytometry analysis (reference value: 0.44%); type: functional
HaCaT [16] = assay: Induction of apoptosis in human HaCaT cells transfected with shAKT3 assessed as late apoptotic cells at 9 uM by flow cytometry analysis (reference value: 17.55%); type: functional
HaCaT [17] = assay: Induction of apoptosis in human HaCaT cells transfected with shAKT3 assessed as necrotic cells at 9 uM by flow cytometry analysis (reference value: 3.84%); type: functional
HaCaT [18] = assay: Antiproliferative activity against human HaCaT cells assessed as inhibition of cell growth incubated for 72 hrs by SRB assay; type: cell-based
U-87 MG = assay: Antiproliferative activity against human U-87MG cells assessed as inhibition of cell growth incubated for 72 hrs by SRB method; type: functional, cell-based, U-87MG ATCC
U-251 = assay: Antiproliferative activity against human U251 cells assessed as inhibition of cell growth incubated for 72 hrs by SRB method; type: functional, cell-based; conditions: U-251, 72 h
[19] = Antiproliferative activity against human 95-D cells assessed as inhibition of cell growth incubated for 72 hrs by SRB method; type: functional, cell-based
NCI-H1975 = assay: Antiproliferative activity against human NCI-H1975 cells assessed as inhibition of cell growth incubated for 72 hrs by SRB method; type: functional, cell-based; conditions: NCI-H1975, 72 h
A549 = assay: Antiproliferative activity against human A549 cells assessed as inhibition of cell growth incubated for 72 hrs by SRB method; type: functional, cell-based; conditions: A549, 72 h
SMMC-7721 = assay: Antiproliferative activity against human SMMC-7721 cells assessed as inhibition of cell growth incubated for 72 hrs by SRB method; type: functional, cell-based; conditions: SMMC-7721, 72 h
HepG2 = assay: Antiproliferative activity against human HepG2 cells assessed as inhibition of cell growth incubated for 72 hrs by SRB method; type: functional, cell-based; conditions: HepG2, 72 h
Bel-7402 = assay: Antiproliferative activity against human Bel-7402 cells assessed as inhibition of cell growth incubated for 72 hrs by SRB method; type: functional, cell-based; conditions: Bel-7402, 72 h
HT-29 = assay: Antiproliferative activity against human HT-29 cells assessed as inhibition of cell growth incubated for 72 hrs by SRB method; type: functional, cell-based; conditions: HT-29, 72 h
769-P = assay: Antiproliferative activity against human 769-P cells assessed as inhibition of cell growth incubated for 72 hrs by SRB method; type: functional, cell-based
786-0 [20] = assay: Antiproliferative activity against human 786-0 cells assessed as inhibition of cell growth incubated for 72 hrs by SRB method; type: functional, cell-based; conditions: 786-0, 72 h
OS-RC-2 = assay: Antiproliferative activity against human OS-RC-2 cells assessed as inhibition of cell growth incubated for 72 hrs by SRB method; type: functional, cell-based; conditions: OS-RC-2, 72 h
KHOS/NP [21] = assay: Antiproliferative activity against human KHOS cells assessed as inhibition of cell growth incubated for 72 hrs by SRB method; type: functional, cell-based
MDA-MB-231 = assay: Antiproliferative activity against human MDA-MB-231 cells assessed as inhibition of cell growth incubated for 72 hrs by SRB method; type: functional, cell-based; conditions: MDA-MB-231, 72 h
LNCaP = assay: Antiproliferative activity against human LNCaP cells assessed as inhibition of cell growth incubated for 72 hrs by SRB method; type: functional, cell-based
PC-3 = assay: Antiproliferative activity against human PC3 cells assessed as inhibition of cell growth incubated for 72 hrs by SRB method; type: functional, cell-based; conditions: PC-3, 72 h
SK-OV-3 = assay: Antiproliferative activity against human SK-OV-3 cells assessed as inhibition of cell growth incubated for 72 hrs by SRB method; type: functional, cell-based; conditions: SK-OV-3, 72 h
OVCAR-8 = assay: Antiproliferative activity against human OVCAR-8 cells assessed as inhibition of cell growth incubated for 72 hrs by SRB method; type: functional, cell-based; conditions: OVCAR-8, 72 h
786-0 [22] = assay: Antitumor activity against human 786-0 cells xenografted in dosed BALB/c nude mouse assessed as tumor growth inhibition at 50 mg/kg, ig administered once daily for 22 days; type: functional; conditions: 786-0, po, 528 h, time 22 day, read-out: TGI
KHOS/NP [23] = assay: Antitumor activity against human KHOS cells xenografted in dosed BALB/c nude mouse assessed as tumor growth inhibition at 50 mg/kg, ig administered once daily for 22 days; type: functional; conditions: po, 528 h, time 22 day, read-out: TGI

## NC1(C(=O)N[C@@H](CCO)c2ccc(Cl)cc2)CCN(c2nc[nH]c3nccc2-3)CC1 [CAPIVASERTIB]
HaCaT [1]
  Activity: Active
HaCaT [2]
  viability at 9 µM: 44%
HaCaT [3]
  Activity: 1.34%
HaCaT [4]
  Activity: 47.55%
HaCaT [5]
  Activity: 7.13%
HaCaT [6]
  viability at 9 µM: 44.7%
HaCaT [7]
  Activity: 1.44%
HaCaT [8]
  Activity: 47.84%
HaCaT [9]
  Activity: 5.98%
HaCaT [10]
  viability at 9 µM: 70.3%
HaCaT [11]
  Activity: 0.79%
HaCaT [12]
  Activity: 25.71%
HaCaT [13]
  Activity: 3.15%
HaCaT [14]
  viability at 9 µM: 46%
HaCaT [15]
  Activity: 1.27%
HaCaT [16]
  Activity: 46.52%
HaCaT [17]
  Activity: 6.23%
HaCaT [18]
  IC50: 4.2 µM
U-87 MG
  IC50: 50.6 µM
U-251
  IC50: 14.2 µM
[19]
  IC50: 2.32 µM
NCI-H1975
  IC50: 8.23 µM
A549
  IC50: 23.7 µM
SMMC-7721
  IC50: 84.1 µM
HepG2
  IC50: 6.7 µM
Bel-7402
  IC50: 49.6 µM
HT-29
  IC50: 36.9 µM
769-P
  IC50: 10.8 µM
786-0 [20]
  IC50: 23.3 µM
OS-RC-2
  IC50: 53.4 µM
KHOS/NP [21]
  IC50: 40.4 µM
MDA-MB-231
  IC50: 60.5 µM
LNCaP
  IC50: 0.46 µM
PC-3
  IC50: 82.6 µM
SK-OV-3
  IC50: 6.32 µM
OVCAR-8
  IC50: 4.48 µM
786-0 [22]
  inhibition in vivo at 50 mg/kg: 47.1%
KHOS/NP [23]
  inhibition in vivo at 50 mg/kg: 33.9%

Source: ChEMBL document CHEMBL4828735, “Discovery of N-((3S,4S)-4-(3,4-Difluorophenyl)piperidin-3-yl)-2-fluoro-4-(1-methyl-1H-pyrazol-5-yl)benzamide (Hu7691), a Potent and Selective Akt Inhibitor That Enables Decrease of Cutaneous Toxicity” (J Med Chem, 2021)
